Results published in ChEMBL document CHEMBL3272258, “Quantitative structure-activity relationships. 1. The modified Free-Wilson approach” (J Med Chem, 1976).

What was measured:
Rattus norvegicus [1] = organism: Rattus norvegicus; assay: Antagonist activity at rat adrenergic receptor assessed as inhibition of adrenaline-induced response
[2] = n-octanol-water partition coefficient, log P of the compound; format: physicochemical
[3] = test system: Trichophyton mentagrophytes; assay: Antifungal activity against Trichophyton mentagrophytes assessed as growth inhibition measured for 14 days by tube dilution method; format: functional
Rattus norvegicus [4] = organism: Rattus norvegicus; assay: Binding affinity to rat thyroid hormone receptor

Row | SMILES | logP [2] | log(activity) (Rattus norvegicus [4]) | log(1/C) (Rattus norvegicus [1]) | log(1/C) [3]
1 | CN(C)CC(Br)c1ccc(Br)cc1 (configuration not stated) | – | – | 8.89 | –
2 | CC(O)COc1ccc(Cl)cc1 (configuration not stated) | 2.16 | – | – | 2.81
3 | NC(Cc1cc(I)c(Oc2ccc(O)c(Br)c2)c(I)c1)C(=O)O (racemic) | – | 2.3 | – | –
4 | CN(C)CC(Br)c1cccc(Br)c1 (configuration not stated) | – | – | 8.3 | –
5 | CN(C)CC(Br)c1ccc(F)cc1 (configuration not stated) | – | – | 8.16 | –
6 | NC(Cc1cc(I)c(Oc2cc(Br)c(O)c(Br)c2)c(I)c1)C(=O)O (racemic) | – | 1 | – | –
7 | NC(Cc1cc(I)c(Oc2cc(Cl)c(O)c(Cl)c2)c(I)c1)C(=O)O (racemic) | – | -0.05 | – | –
8 | NC(Cc1cc(I)c(Oc2cc(F)c(O)c(I)c2)c(I)c1)C(=O)O (racemic) | – | 1.45 | – | –
9 | Cc1ccc(C(Br)CN(C)C)cc1Br (configuration not stated) | – | – | 9.52 | –
10 | CN(C)CC(Br)c1ccc(Cl)cc1 (configuration not stated) | – | – | 8.68 | –
11 | NC(Cc1cc(I)c(Oc2cc(F)c(O)c(F)c2)c(I)c1)C(=O)O (racemic) | – | 0.26 | – | –
12 | CC(O)COc1ccccc1Cl (configuration not stated) | 2.05 | – | – | 2.84
13 | OCC(O)COc1ccccc1Cl (configuration not stated) | 1.29 | – | – | 2.31
14 | CN(C)CC(Br)c1ccc(Br)c(Br)c1 (configuration not stated) | – | – | 9.35 | –
15 | CN(C)CC(Br)c1cccc(F)c1 (configuration not stated) | – | – | 7.52 | –
16 | CN(C)CC(Br)c1cccc(Cl)c1 (configuration not stated) | – | – | 8.16 | –
17 | NC(Cc1cc(Br)c(Oc2cc(Br)c(O)c(Br)c2)c(Br)c1)C(=O)O (racemic) | – | -0.29 | – | –
18 | CN(C)CC(Br)c1ccc(F)c(Cl)c1 (configuration not stated) | – | – | 8.19 | –
19 | NC(Cc1cc(I)c(Oc2ccc(O)c(I)c2)c(I)c1)C(=O)O (racemic) | – | 2.74 | – | –
20 | CN(C)CC(Br)c1ccc(Br)c(Cl)c1 (configuration not stated) | – | – | 9 | –

Row | SMILES | logP [2] | log(activity) (Rattus norvegicus [4]) | log(1/C) (Rattus norvegicus [1]) | log(1/C) [3]
21 | Cc1ccc(C(Br)CN(C)C)cc1 (configuration not stated) | – | – | 9.3 | –
22 | NC(Cc1cc(I)c(Oc2ccc(O)cc2)c(I)c1)C(=O)O (racemic) | – | -0.43 | – | –
23 | NC(Cc1cc(Br)c(Oc2ccc(O)c(I)c2)c(Br)c1)C(=O)O (racemic) | – | 2.11 | – | –
24 | Cc1ccccc1OCC(C)O (configuration not stated) | 2.14 | – | – | 2.46
25 | NC(Cc1cc(Br)c(Oc2cc(I)c(O)c(I)c2)c(Br)c1)C(=O)O (racemic) | – | 1.1 | – | –
26 | CN(C)CC(Br)c1ccc(F)c(Br)c1 (configuration not stated) | – | – | 8.57 | –
27 | CN(C)CC(Br)c1ccc(Cl)c(Br)c1 (configuration not stated) | – | – | 8.92 | –
28 | NC(Cc1cc(I)c(Oc2ccc(O)c(F)c2)c(I)c1)C(=O)O (racemic) | – | 0.38 | – | –
29 | CN(C)CC(Br)c1cccc(I)c1 (configuration not stated) | – | – | 8.4 | –
30 | CN(C)CC(Br)c1ccccc1 (configuration not stated) | – | – | 7.46 | –
31 | CN(C)CC(Br)c1ccc(Cl)c(Cl)c1 (configuration not stated) | – | – | 8.89 | –
32 | NC(Cc1cc(Br)c(Oc2ccc(O)c(Br)c2)c(Br)c1)C(=O)O (racemic) | – | 1.64 | – | –
33 | CN(C)CC(Br)c1ccc(I)cc1 (configuration not stated) | – | – | 9.25 | –
34 | Cc1cc(C(Br)CN(C)C)ccc1Br (configuration not stated) | – | – | 9.22 | –
35 | Cc1cccc(C(Br)CN(C)C)c1 (configuration not stated) | – | – | 8.46 | –
36 | NC(Cc1cc(Cl)c(Oc2cc(I)c(O)c(I)c2)c(Cl)c1)C(=O)O (racemic) | – | -1 | – | –
37 | Cc1cc(C(Br)CN(C)C)ccc1Cl (configuration not stated) | – | – | 8.96 | –
38 | NC(Cc1cc(I)c(Oc2cc(I)c(O)c(I)c2)c(I)c1)C(=O)O (racemic) | – | 2 | – | –
39 | Cc1ccc(C(Br)CN(C)C)cc1C (configuration not stated) | – | – | 9.3 | –
40 | Cc1cc(C(Br)CN(C)C)ccc1F (configuration not stated) | – | – | 8.82 | –

Now from value to compound, other results behind:

Row | logP [2] | log(activity) (Rattus norvegicus [4]) | SMILES | log(1/C) (Rattus norvegicus [1]) | log(1/C) [3]
41 | 3.52 | – | Cc1cc(Cl)cc(C)c1OCC(C)O (configuration not stated) | – | 3.51
42 | 2.84 | – | Cc1cc(Cl)ccc1OCC(C)O (configuration not stated) | – | 3.3
43 | 2.34 | – | Cc1ccccc1OCCCO | – | 2.79
44 | 1.91 | – | Cc1cc(OCC(O)CO)ccc1Cl (configuration not stated) | – | 2.9
45 | 2.73 | – | Cc1cccc(Cl)c1OCC(C)O (configuration not stated) | – | 2.7
46 | 3.18 | – | Cc1cc(OCC(C)O)cc(C)c1Cl (configuration not stated) | – | 3.68
47 | 2.75 | – | CC(O)COc1ccc(Cl)cc1Cl (configuration not stated) | – | 3.35
48 | 2.4 | – | Cc1cc(Cl)c(OCC(O)CO)c(Cl)c1 (configuration not stated) | – | 3.1
49 | 3.36 | – | Cc1cc(Cl)c(OCCCO)c(Cl)c1 | – | 3.67
50 | 1.38 | – | Cc1ccccc1OCC(O)CO (configuration not stated) [MEPHENESIN] | – | 2.26
51 | 2.67 | – | Cc1cc(OCC(C)O)ccc1Cl (configuration not stated) | – | 3.3
52 | 2.36 | – | OCCCOc1ccc(Cl)cc1 | – | 3.07
53 | 1.97 | – | Cc1cccc(Cl)c1OCC(O)CO (configuration not stated) | – | 2.33
54 | 2.64 | – | CC(O)COc1c(Cl)cccc1Cl (configuration not stated) | – | 3.04
55 | 1.99 | – | OCC(O)COc1ccc(Cl)cc1Cl (configuration not stated) | – | 2.61
56 | 3.38 | – | Cc1cc(OCCCO)cc(C)c1Cl | – | 3.93
57 | 2.42 | – | Cc1cc(OCC(O)CO)cc(C)c1Cl (configuration not stated) | – | 3.24
58 | 3.72 | – | Cc1cc(Cl)cc(C)c1OCCCO | – | 3.51
59 | 2.08 | – | Cc1cc(Cl)ccc1OCC(O)CO (configuration not stated) | – | 2.33
60 | 2.93 | – | Cc1cccc(Cl)c1OCCCO | – | 2.78
61 | 2.76 | – | Cc1cc(Cl)cc(C)c1OCC(O)CO (configuration not stated) | – | 2.76
62 | 1.88 | – | OCC(O)COc1c(Cl)cccc1Cl (configuration not stated) | – | 2.37
63 | 1.4 | – | OCC(O)COc1ccc(Cl)cc1 (configuration not stated) | – | 2.31
64 | 3.16 | – | Cc1cc(Cl)c(OCC(C)O)c(Cl)c1 (configuration not stated) | – | 3.47
